Results on two compounds are retold here after ChEMBL document CHEMBL3886800, “Disubstituted 3,4-diamino-3-cyclobutene-1,2-dione compounds for use in the treatment of chemokine-mediated diseases” (2016).

The target in experiment [1] is T1, C-X-C chemokine receptor type 2 (Homo sapiens, UniProt P25025).
T1 sequence (P25025 whole entry): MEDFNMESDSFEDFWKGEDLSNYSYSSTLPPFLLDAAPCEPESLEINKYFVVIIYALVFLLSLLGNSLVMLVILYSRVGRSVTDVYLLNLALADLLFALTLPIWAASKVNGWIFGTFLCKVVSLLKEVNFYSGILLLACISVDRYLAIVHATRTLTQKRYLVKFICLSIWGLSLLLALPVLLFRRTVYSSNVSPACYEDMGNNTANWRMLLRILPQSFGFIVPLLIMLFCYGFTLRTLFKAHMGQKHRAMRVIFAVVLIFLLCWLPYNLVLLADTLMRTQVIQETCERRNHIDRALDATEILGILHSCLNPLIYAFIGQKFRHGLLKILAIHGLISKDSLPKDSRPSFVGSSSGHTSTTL
Briefly: (§1) In Vitro Affinity Assay: ⿿PathHunter HEK293-CXCR2⿝ or ⿿U2OS hCXCR1 β-arrestin⿝ cells (DiscoveRx Corporation) were seeded overnight at 10 000 cells/well (384-well format) in 20 μl of Opti MEM I medium. A preincubation with the antagonist or the vehicle for 30 min at 37° C. and 5% CO2 was followed by 60 minutes of stimulation with CXCL8 at 37° C. and 5% CO2. The cells were then placed at ambient temperature for 30 minutes. The PathHunter detection reagent (DiscoveRx Corporation) was added. After incubation for 60 min at ambient temperature, the […] during the β-arrestin-CXCR2 interaction was measured for 0.3 s in an Envision 2102 Multilabel Reader (PerkinElmer Life and Analytical Sciences).

Experiment [2] deals with T2, C-X-C chemokine receptor type 1 (Homo sapiens, UniProt P25024).
T2 sequence (P25024 whole entry): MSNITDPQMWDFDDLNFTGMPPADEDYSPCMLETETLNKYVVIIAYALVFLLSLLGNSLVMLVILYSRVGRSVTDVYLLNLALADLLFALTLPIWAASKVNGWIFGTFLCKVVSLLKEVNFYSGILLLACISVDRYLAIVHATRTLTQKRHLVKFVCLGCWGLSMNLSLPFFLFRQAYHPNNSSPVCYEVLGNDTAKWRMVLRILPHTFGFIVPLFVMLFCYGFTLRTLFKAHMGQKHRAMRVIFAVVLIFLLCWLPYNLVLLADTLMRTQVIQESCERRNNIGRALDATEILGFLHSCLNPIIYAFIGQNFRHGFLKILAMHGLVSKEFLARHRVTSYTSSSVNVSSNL
Described as §1.

A word on the IC50: it is the point on the concentration scale where inhibition reaches its midpoint. A low value points to inhibition by little substance. In the case of `Cc1ccc(C(Nc2c(Nc3ccc(Cl)c(C(=O)N(C)C)c3O)c(=O)c2=O)C2CCCS2)o1` (single isomer, unassigned), the IC50 in experiment [1] came to 0.069 µM; in experiment [2], 0.113 µM.
In the same order, the values of `Cc1ccc(C(Nc2c(Nc3cccnc3O)c(=O)c2=O)C2CCCS2)o1` (centres undefined) are 0.023 µM and 0.652 µM.
